Laboratory results published in patent US10537567B2, “Kinase inhibitors for treatment of disease” (BioAxone BioSciences, Inc., priority 2017, dated 2020).

What was measured:
[1] = Microbead model of glaucoma in rats; assay type: in vivo, Sprague Dawley rat; conditions: ocular treatment vs vehicle-treated eyes
Description: The different markers of RGC dysfunction are examined in a rat model of glaucoma where latex microspheres are injected into the anterior chamber of the eye to block outflow through the TM. In Sprague Dawley rat RGC loss is 20%-30% over a 4-6 weeks period when 20 μL of beads are injected weekly. This severe model is used to start to determine the amount of API in the retina 1 hour after topical installation of the API/latanoprost combination. Rats are topically dosed with API/Latanoprost for a week after microbead injection, a time when IOP is elevated. The right eyes serve as non-glaucomatous controls.
BIII tubulin expression is decreased in RGCs in glaucoma (Soto et al. 2008 J Neurosci. 28(2): p. 548-561). Loss of BIII tubulin is a biomarker of early RGC degeneration. […] BIII tubulin is observed in radial sections, and RGCs identified by labeling with Brin3. For quantitative comparisons, control and treated radial cryostat sections are cut in the same block and mounted on the same slide, and labeled together with BIII isotype-specific antibodies.
ROCK activation is examined in the same microbead model of glaucoma in rats 4 weeks after daily topical dosing in rats with left and right eyes injected with beads. API alone or API+Latanoprost are delivered once daily by 15 μL eye drop instilled into the left eyes (glaucoma/treated) and right eyes left untreated (glaucoma/untreated). […]

[2] = Hyperemia / ocular tolerability testing in Dutch-Belted rabbits; assay type: in vivo, Dutch-Belted rabbits (Oryctolagus cuniculus)
Text: To test for hyperemia, the rabbit is a standard species used in ocular tolerability studies based upon historical data and FDA requirements. For this study, four (4) Dutch-Belted rabbits (Oryctolagus cuniculus) were manually restrained to facilitate topical dosing followed by ocular examinations, and IOP measurements. Prior to placement on study, each animal underwent an ophthalmic examination (slit-lamp biomicroscopy, indirect ophthalmoscopy). Ocular findings were scored according to a modified McDonald-Shadduck Scoring System. […] Test and control articles were dosed in the morning at approximately the same time every day (˜8 am±2 hours). Animals were observed within their cages once daily throughout the study period. […] Any abnormal observation was reported to the Study Director. Ocular findings were scored according to a modified McDonald-Shadduck Scoring System. The scoring system 0=normal and numbers of 1-4 score mild to severe.
(Table 3). Thus, these ROCK inhibitors have promise for therapeutic use in treating eye pathologies.

[3] = target: PKA (Homo sapiens, UniProt P17612); test: Single dose inhibition assay of key AGC class kinases; assay type: biochemical; conditions: 10 μM API
Description: Molecular modeling and rational drug design were used to create and screen over 50 ROCK inhibitors. These ROCK inhibitors were screened for selectivity for ROCK2 and ability to promote neurite outgrowth. Several lead inhibitors came out of this screen and further screened for inhibition of key AGC class kinases by a single dose inhibition assay performed with 10 μM active pharmaceutical ingredient (API). The lead compound is chiral. […] They have different selectivity for ROCK2 (Table 2) and different off-target profiles (Table 1; FIG. 1).

[4] = target: Abl (Homo sapiens, UniProt P00519); test: Second kinome screen; assay type: binding
Abl, sequence (P00519 whole entry): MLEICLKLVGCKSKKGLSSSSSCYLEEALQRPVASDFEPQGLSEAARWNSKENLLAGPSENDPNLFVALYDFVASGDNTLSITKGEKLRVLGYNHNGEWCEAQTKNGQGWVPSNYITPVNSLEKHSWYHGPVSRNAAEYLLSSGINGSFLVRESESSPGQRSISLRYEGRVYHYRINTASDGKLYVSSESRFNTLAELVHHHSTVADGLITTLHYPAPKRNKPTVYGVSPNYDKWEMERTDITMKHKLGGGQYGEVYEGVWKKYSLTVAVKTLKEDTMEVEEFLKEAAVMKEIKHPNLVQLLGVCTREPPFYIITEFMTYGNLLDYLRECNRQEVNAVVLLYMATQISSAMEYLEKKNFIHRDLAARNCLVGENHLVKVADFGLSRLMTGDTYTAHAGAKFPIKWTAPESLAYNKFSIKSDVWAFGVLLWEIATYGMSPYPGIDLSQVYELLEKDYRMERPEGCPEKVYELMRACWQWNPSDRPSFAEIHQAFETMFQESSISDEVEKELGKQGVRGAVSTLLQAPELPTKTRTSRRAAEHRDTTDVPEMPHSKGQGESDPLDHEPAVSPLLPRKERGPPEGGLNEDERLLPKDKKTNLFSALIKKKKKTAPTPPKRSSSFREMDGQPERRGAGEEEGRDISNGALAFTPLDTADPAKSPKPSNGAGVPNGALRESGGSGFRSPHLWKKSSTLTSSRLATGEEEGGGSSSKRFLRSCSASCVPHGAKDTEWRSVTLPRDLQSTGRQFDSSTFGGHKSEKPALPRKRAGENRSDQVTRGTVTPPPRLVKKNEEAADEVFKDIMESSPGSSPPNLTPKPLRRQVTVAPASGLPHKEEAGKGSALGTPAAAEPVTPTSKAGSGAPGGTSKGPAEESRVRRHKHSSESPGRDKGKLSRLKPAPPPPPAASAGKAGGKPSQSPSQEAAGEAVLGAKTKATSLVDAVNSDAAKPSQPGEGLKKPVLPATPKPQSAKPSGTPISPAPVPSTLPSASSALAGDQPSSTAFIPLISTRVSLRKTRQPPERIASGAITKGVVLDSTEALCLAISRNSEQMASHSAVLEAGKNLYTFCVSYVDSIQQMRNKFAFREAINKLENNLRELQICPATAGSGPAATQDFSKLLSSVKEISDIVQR
Text: In the kinome screen BA-2017 had fewer off-target hits (Table 1) than BA-1049. […] An interesting hit from the kinome screen was on Abl (Table 1), an oncogene that also regulates many cellular activities, including vascular leakage.

[5] = target: ROCK2 (Homo sapiens, UniProt O75116); test: IC50 determined at 10 μM ATP; assay type: biochemical; set-up: purchased Eurofins Testing (Dundee, Scotland, UK)
ROCK2, sequence (O75116 whole entry): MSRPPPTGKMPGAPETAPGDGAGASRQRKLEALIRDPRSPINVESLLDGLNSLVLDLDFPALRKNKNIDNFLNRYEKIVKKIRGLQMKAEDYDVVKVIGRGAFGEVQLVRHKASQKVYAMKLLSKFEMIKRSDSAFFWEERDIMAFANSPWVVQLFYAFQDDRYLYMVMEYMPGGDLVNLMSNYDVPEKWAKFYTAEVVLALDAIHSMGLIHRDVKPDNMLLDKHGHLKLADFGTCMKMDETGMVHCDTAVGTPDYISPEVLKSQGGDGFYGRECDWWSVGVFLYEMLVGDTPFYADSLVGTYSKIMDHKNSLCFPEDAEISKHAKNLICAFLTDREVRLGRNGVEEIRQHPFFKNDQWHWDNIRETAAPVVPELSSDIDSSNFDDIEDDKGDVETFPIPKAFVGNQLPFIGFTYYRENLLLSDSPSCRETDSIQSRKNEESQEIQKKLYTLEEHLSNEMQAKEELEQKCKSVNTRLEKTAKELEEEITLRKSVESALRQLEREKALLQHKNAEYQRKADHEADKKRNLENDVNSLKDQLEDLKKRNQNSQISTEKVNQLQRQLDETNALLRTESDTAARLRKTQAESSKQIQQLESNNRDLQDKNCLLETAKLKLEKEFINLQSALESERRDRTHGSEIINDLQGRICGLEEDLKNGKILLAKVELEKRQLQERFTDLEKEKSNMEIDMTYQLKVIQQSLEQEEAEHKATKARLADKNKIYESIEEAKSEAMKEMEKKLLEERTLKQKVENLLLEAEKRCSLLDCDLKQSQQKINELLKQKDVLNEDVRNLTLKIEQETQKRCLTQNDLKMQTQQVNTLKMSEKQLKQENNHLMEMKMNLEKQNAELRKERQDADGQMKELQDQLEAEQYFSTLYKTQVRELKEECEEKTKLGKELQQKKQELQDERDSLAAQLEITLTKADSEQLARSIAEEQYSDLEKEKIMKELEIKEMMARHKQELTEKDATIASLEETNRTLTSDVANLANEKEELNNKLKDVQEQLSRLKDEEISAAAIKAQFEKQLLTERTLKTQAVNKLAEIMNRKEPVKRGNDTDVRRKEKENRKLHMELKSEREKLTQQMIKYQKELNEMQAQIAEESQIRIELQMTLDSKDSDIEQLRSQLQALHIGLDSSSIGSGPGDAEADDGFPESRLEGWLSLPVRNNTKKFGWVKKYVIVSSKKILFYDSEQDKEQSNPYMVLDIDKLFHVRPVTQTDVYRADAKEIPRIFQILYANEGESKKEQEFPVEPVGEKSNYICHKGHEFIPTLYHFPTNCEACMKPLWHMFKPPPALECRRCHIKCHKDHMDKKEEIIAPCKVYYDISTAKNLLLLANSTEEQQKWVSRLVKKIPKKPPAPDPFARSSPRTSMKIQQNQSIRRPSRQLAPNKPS
Text: The data in Table 2 were obtained at ATP concentration below those corresponding to Km.

[6] = target: ROCK1 (Homo sapiens, UniProt Q13464); test: IC50 determined at 10 μM ATP; assay type: biochemical; set-up: purchased Eurofins Testing (Dundee, Scotland, UK); conditions: 10 μM ATP (below Km)
ROCK1, sequence (Q13464 whole entry): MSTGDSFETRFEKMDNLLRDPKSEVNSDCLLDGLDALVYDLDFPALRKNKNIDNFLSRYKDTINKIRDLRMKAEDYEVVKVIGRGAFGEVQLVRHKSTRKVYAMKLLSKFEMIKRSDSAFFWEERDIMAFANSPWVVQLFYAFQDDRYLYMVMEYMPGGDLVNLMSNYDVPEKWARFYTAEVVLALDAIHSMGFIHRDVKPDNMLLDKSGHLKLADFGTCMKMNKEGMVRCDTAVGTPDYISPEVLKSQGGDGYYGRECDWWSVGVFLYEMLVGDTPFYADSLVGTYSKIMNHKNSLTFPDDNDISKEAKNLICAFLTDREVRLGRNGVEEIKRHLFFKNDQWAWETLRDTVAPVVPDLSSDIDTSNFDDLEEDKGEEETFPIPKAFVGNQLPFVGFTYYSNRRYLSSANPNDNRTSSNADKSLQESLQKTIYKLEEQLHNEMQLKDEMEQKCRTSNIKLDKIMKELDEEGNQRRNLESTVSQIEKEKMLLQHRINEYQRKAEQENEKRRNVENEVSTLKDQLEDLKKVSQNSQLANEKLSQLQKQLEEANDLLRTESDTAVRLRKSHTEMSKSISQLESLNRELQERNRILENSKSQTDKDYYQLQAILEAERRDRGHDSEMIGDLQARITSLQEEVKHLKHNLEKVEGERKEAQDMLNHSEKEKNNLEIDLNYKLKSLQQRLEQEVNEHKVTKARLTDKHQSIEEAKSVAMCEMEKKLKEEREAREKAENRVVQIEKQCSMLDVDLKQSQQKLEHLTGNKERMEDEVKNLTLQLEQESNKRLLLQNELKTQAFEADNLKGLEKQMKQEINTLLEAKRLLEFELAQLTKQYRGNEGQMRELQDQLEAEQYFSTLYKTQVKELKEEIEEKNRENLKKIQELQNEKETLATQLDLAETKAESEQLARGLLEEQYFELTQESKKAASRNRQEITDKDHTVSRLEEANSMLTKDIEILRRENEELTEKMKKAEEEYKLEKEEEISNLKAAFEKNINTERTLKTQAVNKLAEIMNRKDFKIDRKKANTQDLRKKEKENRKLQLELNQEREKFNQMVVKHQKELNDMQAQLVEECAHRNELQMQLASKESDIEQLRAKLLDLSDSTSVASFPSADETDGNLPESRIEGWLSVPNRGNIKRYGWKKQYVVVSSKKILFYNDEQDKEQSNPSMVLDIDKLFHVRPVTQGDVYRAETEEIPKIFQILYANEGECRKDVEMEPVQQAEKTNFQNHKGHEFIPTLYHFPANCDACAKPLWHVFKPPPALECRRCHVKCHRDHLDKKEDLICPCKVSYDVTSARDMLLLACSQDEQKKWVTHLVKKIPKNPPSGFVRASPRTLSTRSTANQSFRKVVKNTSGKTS

[7] = system: cultured primary cortical neurons; test: Beta-amyloid and phosphorylated Tau in cortical neurons from 3×-Tg AD mice; assay type: cell-based; conditions: 1, 10 or 50 μM, 24 or 48 hours
Text: Alzheimer's disease is the most common cause of dementia in the population. Pathologic hallmarks of the disease include the presence in the brain of beta-amyloid bearing plaques and neurofibrillary tangles containing hyperphosphorylated microtubule-associated protein Tau. The 3×-Tg AD mouse model was developed to serve as a rodent model for the development of the biochemical hallmarks of human Alzheimer's disease. This mouse strain harbors 3 transgenes encoding mutant Presenilin-1 (PS1), human Swedish mutant Amyloid Precursor Protein (APP-Swe), and mutant P301L-Tau and is obtained from Jackson Laboratories (Bar Harbor, Me.). […] Similarly, Cancino et al (Cancino et al.; Neurobiol. Aging; 2011; 32:1249) identified the role of increased c-Abl kinase activity in transgenic AD model mice to direct increased phosphorylation of Tau.
Whole brain cortices from one day old (P1) 3×-Tg AD mice (Jackson Labs) are dissected and then dissociated using trypsinization and trituration before being cultured under serum free conditions (NeuroBasal Medium plus B27 supplements; Thermo-Fisher) on dishes pre-coated with poly-ornithine and laminin as growth substrate. The cultures are plated in 24 well tissue culture plates, with 100 to 200,000 cells per well at plating. Cultures are maintained for 5 to 7 days, with half-volume medium changes every other day, before testing of inhibitor treatments. […] Protein extracts are prepared in RIPA buffer and protein concentrations in each extract are determined using the Pierce BCA assay (Pierce Biotechnology). Equivalent amounts of protein from each extract are separated on 4-12% polyacrylamide Bis-Tris gels run in MES buffer (Thermo-Fisher). After transferring to PVDF membranes, the Western blots are processed to examine the levels of beta-amyloid precursor protein (βPAPP), the peptide β-amyloid (Aβ), and levels of both phosphorylated and total tau protein.
For these Western blotting experiments, hyperphosphorylated Tau is detected using antibody AT8-phospho-Ser-202/Thr-205 (Pierce Biotechnology, Rockford, Ill.); total phosphorylated and nonphosphorylated tau is detected with Tau5 antibody (Calbiochem, San Diego, Calif.); total PAPP is detected using monoclonal antibody 22C11 (EMD-Millipore) and Aβ peptide levels are detected using monoclonal antibody 6E10 (BioLegend; San Diego, Calif.). The form of Aβ present can be estimated by comparison to purified Aβ 1-40, 1-42 peptides (AnaSpec; Fremont, Calif.) run as standards on companion gels.

[8] = Day 3, 1% topical once daily, modified McDonald-Shadduck score, 0=normal, 1-4 mild to severe, cells = rabbit 1/2, OD/OS

| Compound | BIII tubulin immunostaining in glaucoma eyes [1] | Aqueous Flare [2, 8] | Cellular Flare [2, 8] | Conjunctival Congestion [2, 8] | Conjunctival Discharge [2, 8] | Conjunctival Swelling [2, 8] | Cornea [2, 8] | Iris Involvement [2, 8] | Pannus [2, 8] | Pupillary Response [2, 8] | Surface Area of Cornea Involvement [2, 8] | Hyperemia / adverse ocular findings ([2]; daily repeat topical dosing, 1%, three days) | Inhibition of PKA [3] | Binding to Abl [4] | IC50 ([5]; 10 μM ATP (below Km), * = preliminary) | Fold-difference ([5]; ROCK1 vs ROCK2 IC50 at 10 μM ATP) | IC50 [6] | Accumulation of phosphorylated forms of Tau protein [7] | Production of Aβ peptide [7] |
| --- | --- | --- | --- | --- | --- | --- | --- | --- | --- | --- | --- | --- | --- | --- | --- | --- | --- | --- | --- |
| C[C@H](N)C1CCN(S(=O)(=O)c2cccc3cnccc23)CC1 [BA-1076] | prevents the loss of BIII tubulin immunostaining | 0 | 0 | 0 | 0 | 0 | 0 | 0 | 0 | 0 | 0 | did not cause hyperemia | Neither compound inhibited PKA | a second kinome screen did not confirm significant binding of BA-1076 to Abl | 730 nM | 14 | 10 µM | dose-dependent reduction in the accumulation of phosphorylated forms of Tau protein | reduced production of Aβ peptide |
| C[C@H](N)C1CCN(S(=O)(=O)c2cccc3c(=O)[nH]ccc23)CC1 [BA-2057] | prevents the loss of BIII tubulin immunostaining | – | – | – | – | – | – | – | – | – | – | – | – | – | – | – | – | dose-dependent reduction in the accumulation of phosphorylated forms of Tau protein | reduced production of Aβ peptide |
